This passage reports inhibition results from patent publication US8431597B2, “Benzimidazole derivatives” (Pfizer Inc., priority 2007, dated 2013).

Each structure is given as a SMILES string. Where a name gives a salt, the structure may show the parent alone.

T1 sequence (P56726 33-793): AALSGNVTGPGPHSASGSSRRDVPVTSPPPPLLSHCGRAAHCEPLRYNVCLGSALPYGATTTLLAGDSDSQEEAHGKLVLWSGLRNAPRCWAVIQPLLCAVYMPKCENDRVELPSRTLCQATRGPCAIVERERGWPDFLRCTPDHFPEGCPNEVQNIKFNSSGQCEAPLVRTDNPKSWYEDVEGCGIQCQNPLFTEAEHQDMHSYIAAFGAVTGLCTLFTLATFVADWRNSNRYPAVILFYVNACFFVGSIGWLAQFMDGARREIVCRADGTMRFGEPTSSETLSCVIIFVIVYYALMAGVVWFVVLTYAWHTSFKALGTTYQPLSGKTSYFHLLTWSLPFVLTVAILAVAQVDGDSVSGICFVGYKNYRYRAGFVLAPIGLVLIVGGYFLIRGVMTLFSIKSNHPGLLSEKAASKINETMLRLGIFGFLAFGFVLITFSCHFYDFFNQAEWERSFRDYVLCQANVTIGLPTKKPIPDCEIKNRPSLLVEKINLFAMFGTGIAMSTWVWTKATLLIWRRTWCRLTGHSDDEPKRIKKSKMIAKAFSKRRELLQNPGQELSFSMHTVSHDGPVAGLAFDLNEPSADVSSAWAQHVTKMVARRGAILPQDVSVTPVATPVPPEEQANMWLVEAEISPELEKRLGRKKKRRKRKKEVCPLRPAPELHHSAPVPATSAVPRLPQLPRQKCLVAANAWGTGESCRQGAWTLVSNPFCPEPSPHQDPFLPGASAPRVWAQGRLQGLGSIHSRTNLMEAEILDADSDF

The test concerns the target T1, Smoothened (SMO) (Mus musculus, UniProt P56726).
T1 construct: C3H10T1/2 cells (ATCC #CCL-226) were split and seeded; endogenous in cells; host or cells: C3H10T1/2 (ATCC #CCL-226)
Nature of the test: Smoothened (SMO)/Sonic Hedgehog (SHh) Transient Transcriptional Activation Assay (Gli-luciferase reporter in C3H10T1/2 cells). Type of test: cell-based, murine. Conditions: C3H 10T1/2, 2 μM compound; transfected C3H10T1/2 cells, recombinant human SHh 250 ng/mL, 20 hours, luciferase readout; read-out: SMO CELL % INHIBITION @ 2 μM. As to the method:
As noted above, the compounds of the invention are useful as inhibitors of SMO. • Methods for determining the in vitro activity of these compounds are described below: Smoothened (SMO)/Sonic Hedgehog (SHh) Transient Transcriptional Activation Assay
On Day 1, 2×10^6 C3H10T1/2 cells (ATCC #CCL-226) were split and seeded in 12 mL of growth medium Basal Medium Eagle (BME, Invitrogen #21010-046) supplemented with 2 mM L-glutamine (Invitrogen #25030-081), 0.1 units/mL penicillin and 0.1 μg/mL streptomycin (Invitrogen #15140-122), and 10% Fetal Bovine Serum (FBS, Invitrogen #16140-071) in a T-75 flask (Costar #3376). They were allowed to attach for 4 hours at 37° C., 5% CO2. The cells were then transfected using Fugene 6 (Roch #11 814 443 001) in the following reaction: 48 μL Fugene 6 and 745 μL Opti-MEM (Invitrogen #31985-070) were mixed and allowed to sit at room temperature for 5 minutes. 8 μg of pGL4.14/mGli(CS) DNA (10× murine Gli response elements and minimal CS promoter) and 0.5 μg of pEGFP DNA (Clontech) were added, gently mixed and incubated at room temperature for 20 minutes. This entire transfection mix was then added to the T-75 flask containing the cells. The cells were incubated at 37° C., 5% CO2 for 18-24 hours.
On Day 2, the transfected cells were trypsinized and seeded into white 96 well plates (Costar #3917) in 100 μL/well of growth medium at a concentration of 20,000 cells/well. The cells were allowed to recover for 4 hours before adding serum starvation medium Dulbecco's Modified Eagle Medium (DMEM, Invitrogen #21063-029) supplemented with 2 mM L-glutamine, 0.1 units/mL penicillin and 0.1 μg/mL streptomycin, and 0.5% Calf Serum (CS, Invitrogen #26170-043). The growth media was aspirated off, and the cells were rinsed with 100 μL of starvation media. 95 μL of starvation media was then added to each well. The cells were incubated for 20 hours at 37° C., 5% CO2.
On Day 3, cells were dosed with test compounds at a final concentration ranging from 2 μM to 2 nM. Immediately after dosing cells with compounds, recombinant human sonic hedgehog (SHh, R&D Systems #1845-SH) was add to a final concentration of 250 ng/mL. A 25 μg vial of SHh was reconstituted with 250 μL PBS/0.1% BSA to give a 100 ng/μL working stock. This working stock was then diluted 1:20 in starvation media. The transfected cells were incubated with compounds and SHh for 20 hours at 37° C., 5% CO2.
Luciferase assays were conducted on Day 4 using Dual-Glo Luciferase assay system (Promega #E2940) according to Promega's protocol. Briefly, Dual-Glo luciferase reagent was made up and 100 μL were added to each well of the 96 well plate containing media. Plates were shaken at room temperature for 10 minutes, and then read on TopCount (Perkin-Elmer). The luminescence was recorded.
For orientation: In a reporter assay the amount or activity of a reporter protein is the signal.
In general, inhibition refers to the change of the read-out against control, counted positive when it falls. On to `CN1CC[C@@H](NC(=O)Nc2ccc(OC(F)(F)F)cc2)C[C@@H]1c1nc2ccccc2[nH]1` [Example 15, 1-[(2R,4R)-2-(1H-benzimidazol-2-yl)-1-methylpiperidin-4-yl]-3-[4-(trifluoromethoxy)phenyl]urea hydrochloride], for which the inhibition at 2 µM is 111%. On to `CN1CC[C@@H](NC(=O)Cc2ccc3c(c2)CCO3)C[C@@H]1c1nc2ccccc2[nH]1` [Example 116, N-[(2R,4R)-2-(1H-benzimidazol-2-yl)-1-methylpiperidin-4-yl]-2-(2,3-dihydro-1-benzofuran-5-yl)acetamide trifluoroacetate], for which the inhibition at 2 µM was 68.2%. On to `COc1ccc(NC(=O)N[C@@H]2CCN(C)[C@@H](c3nc4cc(C(F)(F)F)ccc4[nH]3)C2)cn1` [Example 135, 1-(6-methoxypyridin-3-yl)-3-{(2R,4R)-1-methyl-2-[5-(trifluoromethyl)-1H-benzimidazol-2-yl]piperidin-4-yl}urea hydrochloride], for which the inhibition at 2 µM came out at 104%. In the case of `Cc1cc(NC(=O)N[C@@H]2CCN(C)[C@@H](c3nc4ccccc4[nH]3)C2)cnc1F` [Example 40, 1-[(2R,4R)-2-(1H-benzimidazol-2-yl)-1-methylpiperidin-4-yl]-3-(6-fluoro-5-methylpyridin-3-yl)urea hydrochloride] it was 106%. Regarding `CN1CC[C@@H](NC(=O)Nc2ccc(C#N)cc2)C[C@@H]1c1nc2ccccc2[nH]1` [Example 31, 1-[(2R,4R)-2-(1H-benzimidazol-2-yl)-1-methylpiperidin-4-yl]-3-(4-cyanophenyl)urea hydrochloride], the inhibition at 2 µM was found to be 107%. `CN1CC[C@@H](NC(=O)Nc2cccc(C#N)c2)C[C@@H]1c1nc2ccccc2[nH]1` [Example 88, 1-[(2R,4R)-2-(1H-benzimidazol-2-yl)-1-methylpiperidin-4-yl]-3-(3-cyanophenyl)urea hydrochloride]: the inhibition at 2 µM is 92.1%. In the case of `CN1CC[C@@H](NC(=O)c2cnn3ccccc23)C[C@@H]1c1nc2ccccc2[nH]1` [Example 115, N-[(2R,4R)-2-(1H-benzimidazol-2-yl)-1-methylpiperidin-4-yl]pyrazolo[1,5-a]pyridine-3-carboxamide trifluoroacetate] it was 69.6%; in that of `CN1CC[C@@H](NC(=O)Cc2ccc(Cl)s2)C[C@@H]1c1nc2ccccc2[nH]1` [Example 78, N-[(2R,4R)-2-(1H-benzimidazol-2-yl)-1-methylpiperidin-4-yl]-2-(5-chloro-2-thienyl)acetamide hydrochloride], 99.3%. For `CN1CC[C@@H](NC(=O)c2ccc3c(c2)OCCO3)C[C@@H]1c1nc2ccc(F)cc2[nH]1` [Example 45, N-[(2R,4R)-2-(6-fluoro-1H-benzimidazol-2-yl)-1-methylpiperidin-4-yl]-2,3-dihydro-1,4-benzodioxine-6-carboxamide hydrochloride], the inhibition at 2 µM was 105%.

Regarding `O=C(N[C@@H]1CCN(C2CC2)[C@@H](c2nc3ccccc3[nH]2)C1)c1ccc2c(c1)OCCO2` [Example 125, N-[(2R,4R)-2-(1H-benzimidazol-2-yl)-1-cyclopropylpiperidin-4-yl]-2,3-dihydro-1,4-benzodioxine-6-carboxamide hydrochloride], the inhibition at 2 µM stood at 102%.

With `COc1cccc(C(=O)N[C@@H]2CCN(C)[C@@H](c3nc4ccccc4[nH]3)C2)c1` [Example 112, N-[(2R,4R)-2-(1H-benzimidazol-2-yl)-1-methylpiperidin-4-yl]-3-methoxybenzamide trifluoroacetate], the inhibition at 2 µM worked out at 81.7%. `COc1ccc(NC(=O)N[C@@H]2CCN(C)[C@@H](c3nc4ccccc4[nH]3)C2)cc1` [Example 37, 1-[(2R,4R)-2-(1H-benzimidazol-2-yl)-1-methylpiperidin-4-yl]-3-(4-methoxyphenyl)urea hydrochloride]: the inhibition at 2 µM worked out at 106%. For the compound `CN1CC[C@@H](NC(=O)Nc2ccc(C(F)(F)F)cn2)C[C@@H]1c1nc2ccccc2[nH]1` [Example 101, 1-[(2R,4R)-2-(1H-benzimidazol-2-yl)-1-methylpiperidin-4-yl]-3-[5-(trifluoromethyl)pyridin-2-yl]urea hydrochloride], the inhibition at 2 µM is 62.5%. For the compound `COc1ccc(NC(=O)N[C@@H]2CCN(C)[C@@H](c3nc4ccc(F)cc4[nH]3)C2)cn1` [Example 139, 1-[(2R,4R)-2-(6-fluoro-1H-benzimidazol-2-yl)-1-methylpiperidin-4-yl]-3-(6-methoxypyridin-3-yl)urea hydrochloride], the inhibition at 2 µM was 106%. In the case of `O=C(N[C@@H]1CCN[C@@H](c2nc3ccccc3[nH]2)C1)c1ccc2c(c1)OCCO2` [Example 99, N-[(2R,4R)-2-(1H-benzimidazol-2-yl)piperidin-4-yl]-2,3-dihydro-1,4-benzodioxine-6-carboxamide trifluoroacetate], the inhibition at 2 µM was found to be 72%.

Consider `COc1ccc2nc([C@H]3C[C@H](NC(=O)c4ccc5c(c4)OCCO5)CCN3C)[nH]c2c1` [Example 38, N-[(2R,4R)-2-(6-methoxy-1H-benzimidazol-2-yl)-1-methylpiperidin-4-yl]-2,3-dihydro-1,4-benzodioxine-6-carboxamide hydrochloride], for which the inhibition at 2 µM was found to be 106%. As for `N#Cc1ccc(NC(=O)N[C@@H]2CCN(C3CCC3)[C@@H](c3nc4ccccc4[nH]3)C2)cc1` [Example 70, 1-[(2R,4R)-2-(1H-benzimidazol-2-yl)-1-cyclobutyl-piperidin-4-yl]-3-(4-cyanophenyl)urea], the inhibition at 2 µM came out at 101%. For the compound `CN1CC[C@@H](NC(=O)Cn2nc3ccccc3n2)C[C@@H]1c1nc2ccccc2[nH]1` [Example 106, N-[(2R,4R)-2-(1H-benzimidazol-2-yl)-1-methylpiperidin-4-yl]-2-(2H-1,2,3-benzotriazol-2-yl)acetamide trifluoroacetate], the inhibition at 2 µM came out at 94.5%.

As for `Cc1ccc2[nH]c([C@H]3C[C@H](NC(=O)Nc4ccc(C)nc4)CCN3C3CCC3)nc2c1` [Example 151, 1-[(2R,4R)-1-cyclobutyl-2-(5-methy-1H-benzimidazol-2-yl)piperidin-4-yl]-3-(6-methylpyridin-3-yl)urea triflouroacetate], the inhibition at 2 µM was 107%. Consider `CC(C)(C)OC(=O)N1C[C@H](NC(=O)Nc2ccc(Cl)c(C(F)(F)F)c2)C[C@H]1c1nc2ccccc2[nH]1` [Example 24, tert-butyl (2S,4R)-2-(1H-benzimidazol-2-yl)-4-[({[4-chloro-3-(trifluoromethyl)phenyl]amino}carbonyl)amino]pyrrolidine-1-carboxylate], for which the inhibition at 2 µM came out at 63.1%.

As to `CN1CC[C@@H](NC(=O)NCc2ccccc2)C[C@@H]1c1nc2ccccc2[nH]1` [Example 76, 1-[(2R,4R)-2-(1H-benzimidazol-2-yl)-1-methylpiperidin-4-yl]-3-benzylurea hydrochloride], the inhibition at 2 µM amounted to 100%. For `CCN1CC[C@@H](NC(=O)c2ccc3c(c2)OCCO3)C[C@@H]1c1nc2ccccc2[nH]1` [Example 44, N-[(2R,4R)-2-(1H-benzimidazol-2-yl)-1-ethylpiperidin-4-yl]-2,3-dihydro-1,4-benzodioxine-6-carboxamide hydrochloride], the inhibition at 2 µM was found to be 105%.

For `CN1CC[C@@H](NC(=O)Nc2ccncc2)C[C@@H]1c1nc2ccccc2[nH]1` [Example 16, 1-[(2R,4R)-2-(1H-benzimidazol-2-yl)-1-methylpiperidin-4-yl)-3-pyridin-4-ylurea hydrochloride], the inhibition at 2 µM came out at 111%. Turning to `CN1CC[C@@H](NC(=O)Nc2ccc(C(F)(F)F)nc2)C[C@@H]1c1nc2cc(C(F)(F)F)ccc2[nH]1` [Example 35, 1-{(2R,4R)-1-methyl-2-[5-(trifluoromethyl)-1H-benzimidazol-2-yl]piperidin-4-yl}-3-[6-(trifluoromethyl)pyridin-3-yl]urea hydrochloride], the inhibition at 2 µM was 107%.
